pIC50: −log10 of the molar value.
Legend:
[1] = system: HCV replicon cells Huh 9B; test: HCV replicon assay (luciferase readout); type: cell-based; conditions: Hepatitis C virus, 72 h, concentration reducing replicon level (luciferase activity) by 50% vs untreated cell control; 72 h incubation
Summary of the method: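 Compounds, made up at twice final strength (final DMSO 1%), were added to subgenomic replicon cells one day after plating. Incubation then ran 72 h at 37 °C, 5% CO2, without G418. Replication was quantified as firefly luciferase luminescence in lysed cells, with cytotoxicity assessed on a duplicate clear plate.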

[2] = system: HCV replicon cells Huh 9B; type: cell-based; conditions: concentration reducing total cell area by 50% relative to DMSO controls; methylene blue, absorbance 620 nm; 72 h incubation

## Cc1ccc(NC(=O)CC2CC2)cc1-c1ccc(C(=O)Nc2ccc(CN3CCS(=O)(=O)CC3)cc2)cc1 [Example 178, 5′-(2-Cyclopropyl-acetylamino)-2′-methyl-biphenyl-4-carboxylic acid [4-(1,1-dioxo-1lambda*6*-thiomorpholin-4-ylmethyl)-phenyl]-amide]
[1]
  pIC50: > 6.00
[2]
  TD50: * (* < 50 μM)

## Cc1ccc(NC(=O)c2cncs2)cc1-c1ccc(C(=O)Nc2ccc(CN3CCS(=O)(=O)CC3)cc2)cc1 [Example 179, Thiazole-5-carboxylic acid {4′-[4-(1,1-dioxo-1lambda*6*-thiomorpholin-4-ylmethyl)-phenylcarbamoyl]-6-methyl-biphenyl-3-yl}-amide]
[1]
  pIC50: > 6.00
[2]
  TD50: * (* < 50 μM)

## CC(=O)Nc1ccc(C)c(-c2ccc(C(=O)Nc3ccc(CN4CCS(=O)(=O)CC4)cc3)cc2)c1 [Example 180, 5′-Acetylamino-2′-methyl-biphenyl-4-carboxylic acid [4-(1,1-dioxo-1lambda*6*-thiomorpholin-4-ylmethyl)-phenyl]-amide]
[1]
  pIC50: > 6.00
[2]
  TD50: * (* < 50 μM)

## CCC(CC)C(=O)Nc1ccc(C)c(-c2ccc(C(=O)Nc3ccc(CN4CCS(=O)(=O)CC4)cc3)cc2)c1 [Example 181, 5′-(2-Ethyl-butyrylamino)-2′-methyl-biphenyl-4-carboxylic acid [4-(1,1-dioxo-1lambda*6*-thiomorpholin-4-ylmethyl)-phenyl]-amide]
[1]
  pIC50: > 6.00
[2]
  TD50: * (* < 50 μM)

## CCCC(=O)Nc1ccc(C)c(-c2ccc(C(=O)Nc3ccc(CN4CCS(=O)(=O)CC4)cc3)cc2)c1 [Example 182, 5′-Butyrylamino-2′-methyl-biphenyl-4-carboxylic acid [4-(1,1-dioxo-1lambda*6*-thiomorpholin-4-ylmethyl)-phenyl]-amide]
[1]
  pIC50: > 6.00
[2]
  TD50: * (* < 50 μM)

## Cc1ccc(NC(=O)C(C)C)cc1-c1ccc(C(=O)Nc2ccc(CN3CCS(=O)(=O)CC3)cc2)cc1 [Example 183, 5′-Isobutyrylamino-2′-methyl-biphenyl-4-carboxylic acid [4-(1,1-dioxo-1lambda*6*-thiomorpholin-4-ylmethyl)-phenyl]-amide]
[1]
  pIC50: > 6.00
[2]
  TD50: * (* < 50 μM)

## Cc1ccc(NC(=O)C(C)(C)C)cc1-c1ccc(C(=O)Nc2ccc(CN3CCS(=O)(=O)CC3)cc2)cc1 [Example 184, 5′-(2,2-Dimethyl-propionylamino)-2′-methyl-biphenyl-4-carboxylic acid [4-(1,1-dioxo-1lambda*6*-thiomorpholin-4-ylmethyl)-phenyl]-amide]
[1]
  pIC50: > 6.00
[2]
  TD50: * (* < 50 μM)

## O=C(Nc1ccc(CN2CCS(=O)(=O)CC2)cc1)c1ccc(-c2cc(NC(=O)C3CC3)ccc2OC(F)(F)F)cc1 [Example 185, 5′-(Cyclopropanecarbonyl-amino)-2′-trifluoromethoxy-biphenyl-4-carboxylic acid [4-(1,1-dioxo-1lambda*6*-thiomorpholin-4-ylmethyl)-phenyl]-amide]
[1]
  pIC50: > 6.00
[2]
  TD50: * (* < 50 μM)

## COc1ccc(NC(=O)C2CC2)cc1-c1ccc(C(=O)Nc2ccc(CN3CCS(=O)(=O)CC3)cc2)cc1 [Example 186, 5′-(Cyclopropanecarbonyl-amino)-2′-methoxy-biphenyl-4-carboxylic acid [4-(1,1-dioxo-1lambda*6*-thiomorpholin-4-ylmethyl)-phenyl]-amide]
[1]
  pIC50: > 6.00
[2]
  TD50: * (* < 50 μM)

## COc1ccc(NC(=O)C2CCCCC2)cc1-c1ccc(C(=O)Nc2ccc(CN3CCS(=O)(=O)CC3)cc2)cc1 [Example 187, 5′-(Cyclohexanecarbonyl-amino)-2′-methoxy-biphenyl-4-carboxylic acid [4-(1,1-dioxo-1lambda*6*-thiomorpholin-4-ylmethyl)-phenyl]-amide]
[1]
  pIC50: > 6.00
[2]
  TD50: * (* < 50 μM)

Reference: patent US8008303B2, “Biphenyl derivatives and their use in treating hepatitis C” (AstraZeneca AB, priority 2005, dated 2011)
